Experimental data: patent US8748101B2, “Methods, compositions, and devices utilizing MicroRNA to determine physiological conditions” (Battelle Memorial Institute, priority 2008, dated 2014)

Experiments:
male C57/B6 mice [1] = settings: mouse, in vivo
Method: Quantitative PCR (QPCR) with microRNA specific primer sets were used to confirm the results from array hybridization. In brief, a SYBR Green based method, miScript real-time PCR (Qiagen Inc. Valencia, Calif., USA), or TaqMan primer set from Apply Biosystems, was used with 50 ng of total RNA from each sample. The first strand cDNA was generated according to the manufacturer's instruction. Approximately 2.5 ng of cDNA was used in the PCR reaction. The yield of 18 to 20 base pair fragments (based on SYBR Green intensity) corresponding to the specific microRNA species was monitored with the 7900HT fast real-time PCR system from Applied Biosystems (Applied Biosystems, Foster City, Calif.). QPCR results were analyzed by SDS 2.2.2, with a manual CT threshold value of 0.2.
The male C57/B6 mice were randomly grouped into nine different groups with 4 animals in each group. […] Mice were sacrificed and plasma samples were collected at 1, 3 and 24 hours post-exposure. The nine groups were: 1) 1 hour control; 2) 1 hour treatment 1; 3) 1 hour treatment 2; 4) 1 hour treatment 3; 5) 3 hour control; 6) 3 hour treatment 1; 7) 3 hour treatment 2; 8) 3 hour treatment 3; and 9) 24 hour treatment 3. […] The expression levels of two different microRNA sequences, mir-486 and mir-122, in the serum were profiled by quantitative polymerase chain reactions (Q-PCR). […]

male C57/B6 mice [2] = assay: microRNA profile of plasma, acetaminophen treatment group vs control group; assay type: in vivo; settings: 300 mg/kg single intraperitoneal injection, 24 hours post exposure, FIG. 3
Method: Approximately, 800 μl of QIAzol lysis reagent was added to 200 μl liquid sample. The sample was mixed in a tube followed by adding 200 μl of chloroform. After mixing rigorously for 15 seconds, the sample was then centrifuged at 12,000×g for 15 minutes. The upper aqueous phase was carefully transferred to a new collection tube, and 1.5 total volumes of ethanol was added. The sample was then applied directly to a glass membrane containing column and the RNA was bound and purified by three contiguous washing to remove unwanted contamination. The immobilized RNA was then collected from the membrane with a low salt elution buffer.
The male C57/B6 mice were randomly grouped into two groups, a treatment group (3 animals) and control group (4 animals). […] Mice were sacrificed at 24 hours post exposure, the plasma samples were collected and RNA was isolated.
The expression levels of microRNA sequences in the serum were used to make a microRNA profile. The differentially expressed microRNA sequences between the treatment group and the control group were clustered with the Hierarchical clustering method and is shown in FIG. 3.

mir-486 and mir-122 intensities at one hour (male C57/B6 mice [1]): Clear changes
SMILES: CC(=O)Nc1ccc(O)cc1 [acetaminophen]
levels of microRNA sequences in serum/plasma, treatment vs control (male C57/B6 mice [2]): levels of certain microRNA sequences in the serum could be used as an indication of the acetaminophen toxicity
